Calls of active or inactive are those of the source. No cut-off for these calls is given here.
Columns and labels:
HepG2 [1] = assay: Induction of apoptosis in human HepG2 cells assessed as induction of PARP cleavage incubated for 12 hrs by western blot analysis; type: functional, cell-based
HepG2 [2] = assay: Antiproliferative activity against human HepG2 cells assessed as reduction in cell viability incubated for 48 hrs by MTT assay; type: functional, cell-based; details: HepG2, 48 h
[3] = Selectivity index, ratio of IC50 for human L02 cells to IC50 for human MDA-MB-231 cells by MTT assay; type: toxicity; details: L02 cells versus MDA-MB-231 cells, read-out: Ratio IC50
MDA-MB-231 = assay: Antiproliferative activity against human MDA-MB-231 cells assessed as reduction in cell viability incubated for 48 hrs by MTT assay; type: functional, cell-based; details: MDA-MB-231, 48 h
[4] = Toxicity in Zebra fish AB embryo assessed as induction of morphological abnormalities at 0.5 uM incubated for 72 hrs; parameters: species or system Danio rerio; details: zebrafish
[5] = biological target: T1, Peroxisome proliferator-activated receptor gamma (Homo sapiens) (UniProt P37231); assay: Binding affinity to pBind-PPARgamma-LBD (unknown origin) transfected in HEK293T cells co-transfected with pG5-Luc at 5 uM incubated for 12 hrs by luciferase reporter gene assay; type: cell-based
T1 sequence (whole entry): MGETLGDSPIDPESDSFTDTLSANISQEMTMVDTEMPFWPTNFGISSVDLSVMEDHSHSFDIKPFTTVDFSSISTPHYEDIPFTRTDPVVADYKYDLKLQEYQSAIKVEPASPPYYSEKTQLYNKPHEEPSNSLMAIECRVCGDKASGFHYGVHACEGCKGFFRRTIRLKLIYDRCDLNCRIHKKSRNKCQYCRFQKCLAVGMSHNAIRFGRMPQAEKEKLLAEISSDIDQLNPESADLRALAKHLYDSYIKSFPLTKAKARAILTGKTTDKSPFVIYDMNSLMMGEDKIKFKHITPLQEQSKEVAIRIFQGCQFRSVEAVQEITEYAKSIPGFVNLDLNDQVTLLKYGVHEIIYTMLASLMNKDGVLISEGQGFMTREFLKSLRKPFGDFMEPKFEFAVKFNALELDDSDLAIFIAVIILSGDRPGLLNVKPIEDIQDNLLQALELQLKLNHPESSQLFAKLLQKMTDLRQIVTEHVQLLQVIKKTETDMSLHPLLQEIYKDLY

Huh-7 = assay: Antiproliferative activity against human Huh-7 cells assessed as reduction in cell viability incubated for 48 hrs by MTT assay; type: functional, cell-based; details: Huh-7, 48 h
HeLa [6] = assay: Antiproliferative activity against human HeLa cells assessed as cell viability at 10 uM incubated for 48 hrs by MTT assay; type: functional; details: read-out: Activity
[7] = Cytotoxicity against human L02 cells assessed as reduction in cell viability incubated for 48 hrs by MTT assay; type: toxicity, cell-based
[8] = Toxicity in BALB/c nude mouse xenografted with human HepG2 cells assessed as effect on spleen damage at 50 mg/kg ip administered once every day for 14 days by H and E staining based analysis; type: organism-based; details: in vivo, 336 h, time 14 day
HepG2 [9] = assay: Antitumor activity against human HepG2 cells xenografted in BALB/c nude mouse assessed as increase in cleaved caspase 3 expression in tumor tissues at 50 mg/kg, ip administered once every day for 14 days by immunohistochemistry analysis; type: functional, organism-based; details: time 14.0 day
HepG2 [10] = assay: Induction of apoptosis in human HepG2 cells transfected with Nur77 siRNA assessed as early apoptotic cells at 10 uM incubated for 12 hrs by AnnexinV-FITC/PI staining based flow cytometry (reference value: 1.37%); type: functional
[11] = Selectivity index, ratio of IC50 for human L02 cells to IC50 for human A549 cells by MTT assay; type: toxicity; details: L02 cells versus A549 cells, read-out: Ratio IC50
A549 = assay: Antiproliferative activity against human A549 cells assessed as reduction in cell viability incubated for 48 hrs by MTT assay; type: functional, cell-based; details: A549, 48 h
HeLa [12] = assay: Antiproliferative activity against human HeLa cells assessed as reduction in cell viability incubated for 48 hrs by MTT assay; type: functional, cell-based
HepG2 [13] = assay: Induction of apoptosis in human HepG2 cells transfected with Nur77 siRNA assessed as late necrotic cells at 10 uM incubated for 12 hrs by AnnexinV-FITC/PI staining based flow cytometry (reference value: 0.3%); type: functional
HepG2 [14] = assay: Induction of apoptosis in Nur77 overexpressing human HepG2 cells transfected with Myc-Nur77 assessed as induction of PARP cleavage at 5 uM incubated for 12 hrs by western blot analysis; type: functional, cell-based
HepG2 [15] = assay: Induction of apoptosis in human HepG2 cells transfected with Nur77 siRNA assessed as mitochondrial membrane potential loss by measuring proportion of cells with depolarized MMP at 10 uM incubated for 12 hrs by JC-1 staining based flow cytometry (reference value: 5.81%); type: functional
[16] = Cytotoxicity against human L02 cells assessed as cell viability at 10 uM incubated for 48 hrs by MTT assay; type: toxicity, cell-based; details: read-out: Activity
HepG2 [17] = assay: Antitumor activity against human HepG2 cells xenografted in BALB/c nude mouse assessed as decrease in Ki67 expression in tumor tissues at 50 mg/kg, ip administered once every day for 14 days by immunohistochemistry analysis; type: functional, organism-based; details: time 14.0 day
[18] = biological target: Nuclear receptor subfamily 4immunitygroup A member 1 (Homo sapiens, UniProt P22736); assay: Binding affinity to pBind-Nur77-LBD (unknown origin) transfected in HEK293T cells co-transfected with pG5-Luc assessed as inhibition of Nur77 transcriptional activity by measuring inhibition of Nur77-driven luciferase activity at 5 uM incubated for 12 hrs by luciferase reporter gene assay; type: cell-based; details: filed as modulator
SMMC-7721 = assay: Antiproliferative activity against human SMMC-7721 cells assessed as reduction in cell viability incubated for 48 hrs by MTT assay; type: functional, cell-based; details: SMMC-7721, 48 h
[19] = biological target: T2, Retinoic acid receptor RXR-alpha (Homo sapiens) (UniProt P19793); assay: Binding affinity to pBind-RXRalpha-LBD (unknown origin) transfected in HEK293T cells co-transfected with pG5-Luc at 5 uM incubated for 12 hrs by luciferase reporter gene assay; type: cell-based
T2 sequence (whole entry): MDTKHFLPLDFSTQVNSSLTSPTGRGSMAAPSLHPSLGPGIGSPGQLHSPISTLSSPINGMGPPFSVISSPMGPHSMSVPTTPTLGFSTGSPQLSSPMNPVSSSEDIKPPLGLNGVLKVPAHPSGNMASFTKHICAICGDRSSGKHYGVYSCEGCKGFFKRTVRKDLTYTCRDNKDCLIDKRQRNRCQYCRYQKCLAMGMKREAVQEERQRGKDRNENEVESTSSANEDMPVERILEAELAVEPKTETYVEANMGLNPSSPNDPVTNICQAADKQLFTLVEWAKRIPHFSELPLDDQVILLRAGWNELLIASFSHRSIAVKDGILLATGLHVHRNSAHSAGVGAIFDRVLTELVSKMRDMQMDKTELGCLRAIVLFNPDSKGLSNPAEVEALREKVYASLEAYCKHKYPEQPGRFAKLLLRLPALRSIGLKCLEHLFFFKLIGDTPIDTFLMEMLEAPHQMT

HepG2 [20] = assay: Antitumor activity against human HepG2 cells xenografted in BALB/c nude mouse assessed as inhibition of tumor volume at 50 mg/kg, ip administered once every day for 14 days; type: functional, organism-based; details: time 14.0 day

Nuclear receptor subfamily 4immunitygroup A member 1, sequence (P22736 whole entry, the tested form may be a part): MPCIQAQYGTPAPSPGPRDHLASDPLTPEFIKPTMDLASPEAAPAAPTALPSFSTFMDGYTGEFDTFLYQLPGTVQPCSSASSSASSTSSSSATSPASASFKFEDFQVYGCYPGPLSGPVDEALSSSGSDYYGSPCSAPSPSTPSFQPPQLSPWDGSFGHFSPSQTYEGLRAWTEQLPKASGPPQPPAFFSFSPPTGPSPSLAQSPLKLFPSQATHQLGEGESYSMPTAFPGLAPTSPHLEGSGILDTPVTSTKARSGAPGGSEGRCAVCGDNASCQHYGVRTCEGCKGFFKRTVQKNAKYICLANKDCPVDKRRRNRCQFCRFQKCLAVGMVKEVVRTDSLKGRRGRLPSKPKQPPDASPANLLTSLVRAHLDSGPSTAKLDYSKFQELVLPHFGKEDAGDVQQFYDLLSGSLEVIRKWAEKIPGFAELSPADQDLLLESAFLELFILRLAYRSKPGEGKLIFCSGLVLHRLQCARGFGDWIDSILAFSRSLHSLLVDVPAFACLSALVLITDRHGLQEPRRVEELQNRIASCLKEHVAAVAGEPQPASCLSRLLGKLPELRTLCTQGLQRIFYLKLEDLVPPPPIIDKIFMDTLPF

In the case of `CN(C)CCCNC(=O)c1cc2cc(Nc3nccc(-c4cccnc4)n3)ccc2[nH]1`, the Activity (HepG2 [1]) is reported as “Dose-Dependent Effect”, the IC50 (HepG2 [2]) is reported as 9.04 µM and the selectivity ratio [3] is reported as 3.47. For the same molecule, the IC50 (MDA-MB-231) was 3.24 µM, the Activity [4] was “Non-Toxic” and the Activity [5] was “inactive”. For the same molecule, the IC50 (Huh-7) was 3.58 µM, the viability at 10 µM (HeLa [6]) was 19.4% and the IC50 at 48 h [7] was 11.2 µM. For the same molecule, the Activity [8] was “Non-Toxic”, the Activity (HepG2 [9]) was “Active” and the Activity (HepG2 [10]) was 1.92%. For the same molecule, the selectivity ratio [11] was 1.7, the IC50 (A549) was 6.63 µM and the IC50 (HeLa [12]) was 3.75 µM. The Activity (HepG2 [13]) was 0.75%, the Activity (HepG2 [14]) was “Active” and the Activity (HepG2 [15]) was 8.91%. For the same molecule, the viability at 48 h, 10 µM [16] was 53.4%, the Activity (HepG2 [17]) was “Active” and the Activity [18] was “Active”. For the same molecule, the IC50 (SMMC-7721) was 5.91 µM, the Activity [19] was “inactive” and the Activity (HepG2 [20]) was “Active”.

Reference: ChEMBL document CHEMBL5247610, “Discovery of 5-((4-(pyridin-3-yl)pyrimidin-2-yl)amino)-1H-indole-2-carboxamide derivatives as novel anti-cancer agents targeting Nur77” (Eur J Med Chem, 2022)
